# Reference: US20240327425A1, “KRAS G12D INHIBITOR AND USE THEREOF” (SHANGHAI DE NOVO PHARMATECH CO., LTD., priority 2021, published 2024)
# Key:
# [1] = system: phosphorylation level of ERK1/2 in ASPC-1 human pancreatic cancer cells; experiment: pERK cell level assay (PHOSPHO-ERK1/2 HTRF kit); type: cell-based; settings: Aspc-1 cells, 4 hours incubation
# Experimental: In this experiment, the phosphorylation level of ERK1/2 in AGS human gastric cancer cells or ASPC-1 human pancreatic cancer cells was detected using PHOSPHO-ERK1/2 (THR202/TYR 204) (Cisibo, 64ERKPEH) kit, and the inhibitory effect of the compounds on KRAS G12D was investigated based on the phosphorylation level of ERK1/2.
# On day 1, the density of AGS cell (ATCC) suspension was adjusted to 2.1×10^5 cells/mL, then the suspension was spread in a 96-well plate at 95 μL/well so that there were 2×10^4 cells per well, and the cell culture plate was incubated in a 37° C., 5% CO2 incubator for overnight. On day 2, the compound was serially diluted with 100% dimethyl sulfoxide, and then further diluted with a complete culture medium (RPMI-1640+10% FBS+1% PS) to make a working solution of the compound, which was added to a 96-well cell culture plate at 5 μL/well, and incubated in a 37° C., 5% CO2 incubator for 4 hours. After the incubation was completed, the culture medium was discarded, then 1× lysis buffer was added thereto at 50 μL/well, and the plate was shaken at room temperature for 30 minutes. 16 μL of lysis buffer was added to a white 384-well shallow well plate, then 4 μL of pre-formulated antibody mixture was added thereto, and the plate was sealed with microplate sealer and incubated at room temperature for overnight. On day 3, detection was performed on a TECAN M1000 Pro microplate reader using the HTRF setting, and the IC50 value of the compound was calculated.
# [2] = system: GP2D human colon cancer cells subcutaneous xenograft tumor; experiment: In vivo pharmacodynamic experiment of subcutaneous xenograft tumor model in mice of GP2D human colon cancer cells; settings: BALB/c nude mice; for Tumor volume (11 days, mm^3): 11 days (at grouping)
# Experimental: Cell culture: GP2D human colon cancer cells were maintained in monolayer culture in DMEM culture medium containing 10% fetal bovine serum in a constant temperature incubator containing 5% CO2 at 37° C. Tumor cells were passaged twice a week. Cells in the exponential growth phase were harvested and counted for inoculation.
# Experimental animals: BALB/c nude mice, 6 to 8 weeks, 18 to 22 g, purchased from Jiangsu GemPharmatech Co. Ltd.
# Experimental method: GP2D cell line ([…]) was inoculated subcutaneously on the right back of experimental mice. The inoculation volume of each mouse was 0.1 mL. The growth of the tumor was observed regularly. When the tumor grew to about 150 mm^3, the mice were randomly grouped according to the tumor size and body weight, and the drug was administrated according to the administration plan shown in Table 1. The body weight and tumor size were measured twice a week throughout the experiment.
# tumor volume (mm^3)=0.5×(tumor long diameter×tumor short diameter^2). Tumor size calculation formula: […]
# [3] = target: Human KRAS G12D His-tagged protein (Homo sapiens (Human), UniProt P01116, G12D); experiment: KRAS G12D binding assay (TR-FRET); settings: GDP 20 nM, GTP-Red
# Experimental: The binding ability of the compound to KRAS G12D protein was detected by TR-FRET method, and the inhibitory activity of the compound on KRAS G12D protein was evaluated. Human KRAS G12D His-tagged (Cisbio, 63ADK000CB27PEG) protein was 100-fold diluted with PPI Eu detection buffer (Cisbio, 61DB9RBF), then 5 μL of which was added to a 384-well plate and centrifuged at 2000 rpm for 40 seconds. A 10 mM concentrated stock solution of the test compound was prepared with dimethyl sulfoxide, 3-fold serially diluted, then diluted to make a working solution (0.5% DMSO) with PPI Eu detection buffer, added to a 384-well plate at 5 μL/well, with the control group added with 0.5% dimethyl sulfoxide and the highest concentration of the test compound at 10 μM, and centrifuged at 2000 rpm for 40 seconds. An 80 nM GDP standard working solution (Cisbio, 63ADK000CB27PEG) was prepared with PPI Eu detection buffer and added to a 384-well plate at 5 μL/well, with the final concentration of GDP standard working solution at 20 nM. The plate was centrifuged at 2000 rpm for 40 seconds and reacted at room temperature for 30 minutes. 1×6His Eu cryptate antibody and GTP-Red reagent (Cisbio, 63ADK000CB27PEG) were prepared with PPI Eu detection buffer, mixed in a volume ratio of 1:1, 5 μL of which was then added to a 384-well plate, centrifuged at 2000 rpm for 40 seconds, and incubated at room temperature for 30 minutes. The fluorescence intensity at 620 nm and 665 nm was detected by a microplate reader, and the inhibitory activity of the compound on KRAS G12D protein was obtained by fitting a four-parameter equation.
# [4] = system: ASPC-1 human pancreatic cancer cells; experiment: Cell proliferation assay (Cell Titer-Glo), ASPC-1; type: cell-based
# Experimental: (§1) On day 1, AGS human gastric cancer cells, ASPC-1 human pancreatic cancer cells, or GP2D human colon cancer cells (Nanjing Cobioer Biosciences Co. Ltd.) in the logarithmic growth phase were taken, digested with an appropriate amount of trypsin, formulated into a single cell suspension using RPMI 1640 (Gibco) medium containing 10% fetal bovine serum and 1% penicillin-streptomycin, counted to adjust the cell density, inoculated in a 96-well plate at 95 μL/well so that there were 3000 cells per well, and then the cell culture plate was incubated in a 37° C., 5% CO2 incubator for overnight. On day 2, a 10 mM concentrated stock solution of KRAS G12D inhibitor was 3-fold serially diluted with dimethyl sulfoxide solution, and then diluted with AGS complete culture medium to make a working solution, which was added to a cell culture plate at 5 μL/well so that the compound had the highest concentration of 10 μM and the lowest concentration of 0.0015 μM, and the control group was 0.5% dimethyl sulfoxide. The cell culture plate was briefly centrifuged and then incubated in a CO2 incubator for 72 hours. On day 5, the cell culture plate was taken out, added with Cell Titer-Glo (Promega) detection reagent in each well, incubated in the dark for 10 minutes, and then luminescence was detected using a microplate reader (Tecan, Infinite M1000 Pro). Data were analyzed using Graphpad software, and curve fitting was performed with four-parameter equation and the IC50 value of the inhibitor was calculated.
# [5] = system: GP2D human colon cancer cells; experiment: Cell proliferation assay (Cell Titer-Glo), GP2D; type: cell-based; settings: 72 hours
# Experimental: as §1
# Human KRAS G12D His-tagged protein, sequence (P01116-2 other isoform, or with tags, fused parts or gaps G12D): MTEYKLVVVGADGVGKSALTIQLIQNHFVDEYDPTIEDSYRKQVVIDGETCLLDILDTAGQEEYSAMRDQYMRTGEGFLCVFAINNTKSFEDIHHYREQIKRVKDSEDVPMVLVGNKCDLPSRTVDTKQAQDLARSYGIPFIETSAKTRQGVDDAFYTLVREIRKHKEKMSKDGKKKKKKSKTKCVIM
IC50 ([1]; pERK1/2 (THR202/TYR204)) [nM],"IC50 ([4]; Aspc-1, 72 hours) [nM]",IC50 [5] [nM],SMILES,"IC50 ([1]; Homo sapiens, ASPC1, pERK1/2 (THR202/TYR204)) [nM]","Tumor volume (11 days, mm^3) ([2]; 3 mg/kg i.p. twice a day) [mm^3]","Tumor volume (21 days, mm^3) ([2]; 3 mg/kg i.p. twice a day) [mm^3]",T/C (%) ([2]; 3 mg/kg i.p. twice a day),Tumor regression rate (%) ([2]; 3 mg/kg i.p. twice a day),"Tumor volume (11 days, mm^3) ([2]; 10 mg/kg i.p. twice a day) [mm^3]","Tumor volume (21 days, mm^3) ([2]; 10 mg/kg i.p. twice a day) [mm^3]",T/C (%) ([2]; 10 mg/kg i.p. twice a day),Tumor regression rate (%) ([2]; 10 mg/kg i.p. twice a day),IC50 [3] [nM],"IC50 ([4]; Homo sapiens, ASPC1, Aspc-1, 72 hours) [nM]",IC50 ([5]; Homo sapiens) [nM]
–,–,–,"N#Cc1c(N)sc2cccc(-c3c(Cl)c4c5c(nc(OC[C@@]67CCCN6C[C@H](F)C7)nc5c3F)N3C[C@H]5CC[C@H](N5)[C@H]3CO4)c12 (single isomer, unassigned) [Compound I-7-2]",0.544,140.32 ± 19.74,80.27 ± 11.38,18.6,−39.9,139.69 ± 17.49,70.19 ± 11.89,15.5,−49.8,2.44,1.7,0.095
5.58,31.9,0.497,"CC(Oc1nc2c3c(c(Cl)c(-c4cccc5sc(N)c(C#N)c45)c(F)c3n1)OC[C@@H]1[C@@H]3CC[C@H](CN21)N3)[C@@]12CCCN1C[C@H](F)C2 (stereo partly drawn) [Compound I-17, 2-amino-4-((5aS,6S,9R)-3-chloro-1-fluoro-13-(1-((2R,7aS)-2-fluorohexahydro-1H-pyrrolizin-7a-yl)ethoxy)-5a,6,7,8,9,10-hexahydro-5H-6,9-epiminoazepino[2′,1′:3,4][1,4]oxazepino[5,6,7-de]quinazolin-2-yl)benzo[b]thiophene-3-carbonitrile ditrifluoroacetate]",–,–,–,–,–,–,–,–,–,7.77,–,–
